“And” between values parts separate entries of the source, which are not always exact repeats. Equal entries are not always repeated. Where two headings read alike, the source gives them in different places.
Legend:
[1] = Pharmacokinetic plasma parameters of J147, oral and intravascular administration; type: in vivo, Adult Wister Rats; conditions: for FInf: calculated based on AUCInf; for Flast: calculated based on AUClast
Experimental: (§1) Plasma samples obtained during surgery in J147-treated rats and 3 control rats were measured for circulating levels of J147. Results of pharmacokinetic measures of both plasma and brain levels of J147 in rats following oral administration of J147 in basis suspension at 20 mg/kg and also following intravascular administration at 5 mg/kg are shown in Table 2A-C below. When taking the absence of an appropriate peak as zero, mean concentration is 0 ng/ml in controls, 3.103 ng/ml in acutely treated rats and 0.233 ng/ml in chronically treated rats. J147 levels in food were verified as well (467 mg/kg). […] During the first 10 days after surgery and individual housing, rats on the diet ate on average 20±1 g, which was similar to the 20±1 g in surgery with control food and 23±1 g in non-surgery controls, verifying the anticipated intake of 10 mg J147/rat/day and further supporting no preference or aversion for the diet food.

[2] = Plasma levels of J147 after oral administration in Basis suspension; type: in vivo, Adult Wister Rats; conditions: oral 20 mg/kg in Basis suspension
Experimental: as §1
Tables 2A-2B. Pharmacokinetic Measures of Plasma and Brain Levels of J147 Formulated in Basis Suspension Administered Orally to Adult Wister Rats at 20mg/kg.

[3] = IV 5 mg/kg, 1 mg/mL in DMSO/PEG 200/Saline 5/70/25, individual animals (1148, 1154, 1156, 1158), 5 mg/kg
[4] = IV 5 mg/kg, individual animals (1148, 1154, 1156, 1158), 5 mg/kg
[5] = PO_A 20 mg/kg, 7 mg/mL in Basis, individual animals (1142, 1144, 1150, 1166), 20 mg/kg
[6] = PO_A 20 mg/kg, individual animals (1142, 1144, 1150, 1166), 20 mg/kg
[7] = Wistar, rat, plasma, iv, 5 mg/kg, IV 5 mg/kg, Mean of 4 animals
[8] = Wistar, rat, plasma, po, 20 mg/kg, PO_B (oral, Basis), Mean

Q: Which results are given for `COc1cccc(/C=N/N(C(=O)C(F)(F)F)c2ccc(C)cc2C)c1` [J147]?
A: C0 [1, 3]: 4706 ng/mL and 384 ng/mL and 1572 ng/mL and 2509 ng/mL; Cl_obs [1, 3]: 90.2 mL/min/kg and 98.9 mL/min/kg and 107 mL/min/kg; Tmax [1, 3]: 4.98 min and 15 min; t1/2 [1, 3]: 64.8 min and 57.8 min and 51.1 min; AUC_% Ex Trap ([1]; IV 5 mg/kg, Mean of 4 animals): 1.58%; Cl_obs ([1]; IV 5 mg/kg, Mean of 4 animals): 77.4 mL/min/kg; vss_obs ([1]; IV 5 mg/kg, Mean of 4 animals): 5.18 L/kg; AUCInf [1, 4]: 842 ng·h/mL and 631 ng·h/mL and 781 ng·h/mL; AUC_% Ex Trap [1, 4]: 1.14% and 2.31% and 1.89% and 0.979%; MRT [1, 4]: 55.6 min and 44.1 min and 34.3 min; vss_obs [1, 4]: 3.39 L/kg and 6.41 L/kg and 6.82 L/kg and 4.07 L/kg; AUClast ([1]; IV 5 mg/kg, last time point 6 h, Mean of 4 animals): 782 ng·mL·h; AUClast ([1]; IV 5 mg/kg, last time point 6 h, individual animals (1148, 1154, 1156, 1158), 5 mg/kg): 913 ng·mL·h and 823 ng·mL·h and 619 ng·mL·h and 774 ng·mL·h; Cmax [1, 5]: 29.0 ng/mL and 39.9 ng/mL and 36.5 ng/mL and 69.2 ng/mL; t1/2 [1, 5]: 96.6 min and 70.8 min; AUC_% Ex Trap ([1]; PO_A 20 mg/kg, Mean): 7.60%; FInf ([1]; PO_A 20 mg/kg, Mean): 4.29%; FInf [1, 6]: 2.64% and 2.72% and 7.50%; Flast ([1]; PO_A 20 mg/kg, Mean): 3.61%; Flast [1, 6]: 2.45% and 2.23% and 2.51% and 7.25%; AUCInf [1, 6]: 82.5 ng·h/mL and 91.5 ng·h/mL and 189 ng·h/mL; AUC_% Ex Trap [1, 6]: 7.91% and 9.72% and 5.17%; AUClast ([1]; PO_A 20 mg/kg, last time point 6 h, Mean): 105 ng·mL·h; AUClast ([1]; PO_A 20 mg/kg, last time point 6 h, individual animals (1142, 1144, 1150, 1166), 20 mg/kg): 76.0 ng·mL·h and 81.6 ng·mL·h and 82.6 ng·mL·h and 180 ng·mL·h; AUC_% Ex Trap ([1]; PO_B (oral, Basis), Mean): 15.9%; AUClast ([1]; PO_B (oral, Basis), last time point 4 h, Mean): 64.7 ng·mL·h; half-life ([1]; Wistar, rat, plasma, iv, 5 mg/kg, IV 5 mg/kg, 1 mg/mL in DMSO/PEG 200/Saline 5/70/25, individual animals (1148, 1154, 1156, 1158)): 63.6 min; AUC(0-inf) [1, 7]: 795 ng·h/mL; half-life [1, 7]: 59.2 min; C0 ([1]; Wistar, rat, plasma, iv, 5 mg/kg, IV 5 mg/kg, Mean of 4 animals, read-out: C0): 2290 ng/mL; MRT ([1]; Wistar, rat, plasma, iv, 5 mg/kg, IV 5 mg/kg, Mean of 4 animals, read-out: MRT): 41.7 min; Tmax ([1]; Wistar, rat, plasma, iv, 5 mg/kg, IV 5 mg/kg, Mean of 4 animals, read-out: tmax): 7.5 min; AUC(0-inf) ([1]; Wistar, rat, plasma, iv, 5 mg/kg, IV 5 mg/kg, individual animals (1148, 1154, 1156, 1158)): 924 ng·h/mL; MRT ([1]; Wistar, rat, plasma, iv, 5 mg/kg, IV 5 mg/kg, individual animals (1148, 1154, 1156, 1158), read-out: MRT): 32.8 min; half-life ([1]; Wistar, rat, plasma, po, 20 mg/kg, PO_A 20 mg/kg, 7 mg/mL in Basis, Mean): 84.6 min; Cmax ([1]; Wistar, rat, plasma, po, 20 mg/kg, PO_A 20 mg/kg, 7 mg/mL in Basis, Mean, read-out: Cmax): 43.7 ng/mL; Tmax ([1]; Wistar, rat, plasma, po, 20 mg/kg, PO_A 20 mg/kg, 7 mg/mL in Basis, Mean, read-out: tmax): 52.8 min; half-life ([1]; Wistar, rat, plasma, po, 20 mg/kg, PO_A 20 mg/kg, 7 mg/mL in Basis, individual animals (1142, 1144, 1150, 1166)): 87 min; Tmax ([1]; Wistar, rat, plasma, po, 20 mg/kg, PO_A 20 mg/kg, 7 mg/mL in Basis, individual animals (1142, 1144, 1150, 1166), read-out: tmax): 60 min; AUC(0-inf) ([1]; Wistar, rat, plasma, po, 20 mg/kg, PO_A 20 mg/kg, Mean): 121 ng·h/mL; AUC(0-inf) [1, 8]: 76.9 ng·h/mL; half-life [1, 8]: 85.2 min; Cmax ([1]; Wistar, rat, plasma, po, 20 mg/kg, PO_B (oral, Basis), Mean, read-out: Cmax): 47.4 ng/mL; Tmax ([1]; Wistar, rat, plasma, po, 20 mg/kg, PO_B (oral, Basis), Mean, read-out: tmax): 30 min; concentration at 0.25 h ([2]; Wistar, rat, plasma, po, 20 mg/kg, 0.25 h, individual rats (Rat 10, 11, 12), read-out: Plasma Conc.): 1.29 ng/mL; concentration at 0.25 h ([2]; Wistar, rat, plasma, po, 20 mg/kg, 0.25 h, mean of rats, read-out: Plasma Conc. Mean): 1.34 ng/mL; concentration at 0.5 h ([2]; Wistar, rat, plasma, po, 20 mg/kg, 0.5 h, mean of rats, read-out: Plasma Conc. Mean): 3.94 ng/mL; concentration at 1 h ([2]; Wistar, rat, plasma, po, 20 mg/kg, 1 h, individual rats (Rat 10, 11, 12), read-out: Plasma Conc.): 7.34 ng/mL; concentration at 1 h ([2]; Wistar, rat, plasma, po, 20 mg/kg, 1 h, mean of rats, read-out: Plasma Conc. Mean): 8.19 ng/mL; concentration at 2 h ([2]; Wistar, rat, plasma, po, 20 mg/kg, 2 h, individual rats (Rat 10, 11, 12), read-out: Plasma Conc.): 15.1 ng/mL; concentration at 2 h ([2]; Wistar, rat, plasma, po, 20 mg/kg, 2 h, mean of rats, read-out: Plasma Conc. Mean): 15.8 ng/mL; concentration at 4 h ([2]; Wistar, rat, plasma, po, 20 mg/kg, 4 h, mean of rats, read-out: Plasma Conc. Mean): 8.8 ng/mL; concentration at 6 h ([2]; Wistar, rat, plasma, po, 20 mg/kg, 6 h, individual rats (Rat 10, 11, 12), read-out: Plasma Conc.): 3.14 ng/mL; concentration at 6 h ([2]; Wistar, rat, plasma, po, 20 mg/kg, 6 h, mean of rats, read-out: Plasma Conc. Mean): 2.46 ng/mL; concentration at 8 h ([2]; Wistar, rat, plasma, po, 20 mg/kg, 8 h, individual rats (Rat 10, 11, 12), read-out: Plasma Conc.): 0.822 ng/mL; concentration at 8 h ([2]; Wistar, rat, plasma, po, 20 mg/kg, 8 h, mean of rats, read-out: Plasma Conc. Mean): 0.788 ng/mL; Plasma Conc. ([2]; 0.25 h, individual rats (Rat 10, 11, 12), 20 mg/kg): BLOQ and 1.38 ng/mL; Plasma Conc. ([2]; 0.5 h, individual rats (Rat 10, 11, 12), 20 mg/kg): 1.52 ng/mL and 5.77 ng/mL and 4.54 ng/mL; Plasma Conc. ([2]; 1 h, individual rats (Rat 10, 11, 12), 20 mg/kg): 8.39 ng/mL and 8.83 ng/mL; Plasma Conc. ([2]; 2 h, individual rats (Rat 10, 11, 12), 20 mg/kg): 16.9 ng/mL and 15.4 ng/mL; Plasma Conc. ([2]; 4 h, individual rats (Rat 10, 11, 12), 20 mg/kg): 6.92 ng/mL and 6.35 ng/mL and 13.2 ng/mL; Plasma Conc. ([2]; 6 h, individual rats (Rat 10, 11, 12), 20 mg/kg): 1.78 ng/mL and 2.47 ng/mL; Plasma Conc. ([2]; 8 h, individual rats (Rat 10, 11, 12), 20 mg/kg): 0.654 ng/mL and 0.888 ng/mL; Plasma Conc. ([2]; 12 h, individual rats (Rat 10, 11, 12)): BLOQ; Plasma Conc. ([2]; 16 h, individual rats (Rat 10, 11, 12)): BLOQ; Plasma Conc. ([2]; 20 h, individual rats (Rat 10, 11, 12)): BLOQ; Plasma Conc. ([2]; 24 h, individual rats (Rat 10, 11, 12)): BLOQ

Source: patent US20220273590A1, “COMPOUNDS FOR PREVENTION AND TREATMENT OF POST-OPERATIVE COGNITIVE DYSFUNCTION” (ABREXA PHARMACEUTICALS, INC., priority 2019, published 2022)
